Legend:
[1] = target: 5-hydroxytryptamine receptor 2A (Homo sapiens, UniProt P28223); assay: Displacement of [3H]Ketanserin from human cloned 5HT2A receptor
[2] = target: Histamine H1 receptor (Homo sapiens, UniProt P35367); assay: Displacement of [3H]Pyrilamine from human cloned histamine H1 receptor
Sequence of Histamine H1 receptor (P35367 whole entry): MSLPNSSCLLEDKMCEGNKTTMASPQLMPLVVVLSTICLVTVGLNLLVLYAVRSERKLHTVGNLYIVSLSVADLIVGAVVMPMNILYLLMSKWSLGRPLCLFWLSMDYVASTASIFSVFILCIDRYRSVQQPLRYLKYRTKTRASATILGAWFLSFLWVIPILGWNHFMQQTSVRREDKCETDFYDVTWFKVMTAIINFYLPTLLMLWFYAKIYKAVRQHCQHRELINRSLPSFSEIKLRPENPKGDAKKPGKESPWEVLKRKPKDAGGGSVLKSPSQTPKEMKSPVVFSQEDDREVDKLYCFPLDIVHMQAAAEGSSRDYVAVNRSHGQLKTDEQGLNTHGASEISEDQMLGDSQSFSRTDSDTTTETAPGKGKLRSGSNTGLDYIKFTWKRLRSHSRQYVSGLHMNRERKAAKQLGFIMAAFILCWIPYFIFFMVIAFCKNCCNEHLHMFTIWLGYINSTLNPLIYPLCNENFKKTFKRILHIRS

Sequence of 5-hydroxytryptamine receptor 2A (P28223 whole entry): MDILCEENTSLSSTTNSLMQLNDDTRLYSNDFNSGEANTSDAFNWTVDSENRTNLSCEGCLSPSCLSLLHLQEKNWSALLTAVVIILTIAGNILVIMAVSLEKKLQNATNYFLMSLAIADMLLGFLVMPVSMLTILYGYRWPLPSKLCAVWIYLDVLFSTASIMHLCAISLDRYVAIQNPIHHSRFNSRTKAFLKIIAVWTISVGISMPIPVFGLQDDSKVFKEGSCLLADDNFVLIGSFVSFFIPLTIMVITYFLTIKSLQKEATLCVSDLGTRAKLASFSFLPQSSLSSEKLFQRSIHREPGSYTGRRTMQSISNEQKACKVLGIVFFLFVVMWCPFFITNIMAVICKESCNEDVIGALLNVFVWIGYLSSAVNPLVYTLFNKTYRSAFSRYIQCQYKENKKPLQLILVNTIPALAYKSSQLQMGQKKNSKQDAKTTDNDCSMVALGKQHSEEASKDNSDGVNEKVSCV

| Compound | Ki [1] [nM] | Ki [2] [nM] |
| --- | --- | --- |
| c1ccc(CCCCNCC2c3ccccc3Cc3ccccc32)cc1 | 365 | 964 |
| c1ccc(CCCNCC2c3ccccc3Cc3ccccc32)cc1 | 223 | 725 |
| c1ccc(CCNCC2c3ccccc3Cc3ccccc32)cc1 | 400 | 242 |
| COc1ccc2c3c(ccc2c1)Cc1ccccc1C3CN (stereo not drawn) | 21 | 2640 |

Reference: ChEMBL document CHEMBL1159090 (Bioorg Med Chem Lett, 2010)
